From patent US10722505B2, “Substituted 2,4 diamino-quinoline as new anticancer agents” (GENOSCIENCE PHARMA, priority 2014, dated 2020)
Where a name gives a salt, the structure may show the parent alone.

What was measured:
[1] = test system: LI1646 HCC patient derived cells; assay: CellTiter-Glo growth inhibition, HCC patient-derived cells LI1646; format: cell-based, human; conditions: Homo sapiens; LI1646, 72 hours
Method: (§1) The patient derived Hepatocellular Carcinoma (HCC) cells were maintained in medium respectively described in table 15 containing 1% penicillin-streptomycin (Life Technologies, 15070-063), with a supplements for primary cell culture (PCS) containing hydrocortisone (50 nM), Epidermal Growth Factor (20 ng/ml), β-fibroblast Growth Factor (10 ng/ml), Heparin (2 μg/ml) ITS liquid media supplement (1×) and non-essential amino acid (NEAA, 0.01 mM, 1×). The primary cell were cultured in a humidified atmosphere (95% relative humidity) with 5% CO2 at 37° C.
(§2) The cell growth inhibition assay was performed as described previously in example 5 using the CellTiter-Glo® luminescent cell viability assay as described by the manufacturer (Promega, Ref G7571). The number of cells seeded per well (in 96-Well Flat Clear Bottom Black Polystyrene TC-Treated Microplates, Cat #3340, Corning®) is described in the table 16. A backseal black sticker (Cat #6005189, Perkin Elmer) was placed to the bottom of each plate before recording CellTiter-Glo® luminescence.
(§3) The experimental data are analyzed using a computer program, Graphpad Prism V 5.0 (GraphPad Software, Inc. La Jolla, Calif.) and EC50 values were determined as the dose of compound required to reduce absorbance values to 50% of the signal obtained for vehicle treated cell cultures and were a mean of at least three independent experiments.

[2] = test system: CPP45 liver metastatic CRC patient-derived cells; assay: CellTiter-Glo growth inhibition, liver metastatic CRC patient-derived cells CPP45; format: cell-based; conditions: Homo sapiens; CPP45, 72 h
Description: Patient derived liver metastasis cells (CPP19, 30, 36 and CPP45—see table 1 for clinical descriptions) were maintained in complete DMEM (Gibco) with 10% FBS. Cells were obtained from biopsies provided by CHU-Caremeau (Nimes, France) within an approved protocol. Signed informed consents were obtained from patients prior to samples acquisition in accordance with all ethical and legal aspects. Tumors were washed, minced into fragments (<2 mm^3) and digested with liberase H (0.26 U/mL, Roche) resuspended in Accumax (Sigma-Aldrich). After 2 hours at 37° C., cell suspension was filtered through a […] to obtain a single cell suspension and plated in DMEM medium, supplemented with FBS, glutamine, antibiotics and non-essential aminoacids. When a monolayer of patient-derived tumor cells was formed, cells were detached using trypsin/EDTA and resuspended in DMEM with 10% FBS (for adherent cells) or defined M11 media (for sphere formation). Cells were cultured in a humidified atmosphere at 37° C. and 5% CO2.
Cells were plated at 10^4 cells per well in P96 well plates in DMEM with 10% FBS. After 24 hours, cells were treated with compound 2-3 and cell viability was assessed 72 h post-treatment by CellTiter-Glo® Luminescent Cell Viability Assay (Promega). EC50 were calculated using GraphPad Prism Software v6 (Graphpad Software, Inc La Jolla, Calif.). […]

CAKI-1 cell line = assay: CellTiter-Glo growth inhibition assay, CAKI-1; format: cell-based; conditions: Homo sapiens, CAKI-1, 72 h
Method: CAKI-1 and 786-0 cell lines were maintained in RPMI 1640 medium (Dutscher, L0498) containing 1% penicillin-streptomycin (Dutscher, P06-07100) and 10% Fetal Bovine Serum (Gibco, W3387L) and cultured at 37° C. with 5% CO2.
(§4) Cell viability was measured using the CellTiter-Glo® luminescent cell viability assay as described by the manufacturer (Promega, Ref G7571) using an Infinite F200Pro luminometer (Tecan). Briefly, cells were plated onto 96-well plates (white with clear bottom) in 90 μL of media per well and were allowed to grow overnight before the assay.
Compounds 2-3 and two reference compounds (Sorafenib and Sunitinib) were added at different concentrations to each well, and cell cultures were incubated for 72 h. For compound 2-3 analysis, H2O was used as a negative control (=untreated) and all concentrations were tested in a constant percentage of H2O. For Sorafenib and Sunitinib analysis, DMSO was used as a negative control (=untreated) and all concentrations were tested in a constant percentage of DMSO. 72 h after incubation of compounds, 100 μL of CellTiter-Glo® were added to each well and luminescence was measured using an Infinite F200Pro (Tecan). EC50 values were determined as the dose of compound required to reduce luminescent values to 50% of the signal obtained for untreated cell cultures. The experimental data were analyzed using a computer program, Graphpad Prism v5 (GraphPad Software, Inc. La Jolla, Calif.). All experiments were at least done in triplicate and repeated at least three independent times.

[3] = test system: LI0612 HCC patient derived cells; assay: CellTiter-Glo growth inhibition, HCC patient-derived cells LI0612; format: cell-based, human; conditions: Homo sapiens; LI0612, 72 hours
Method: as §1, §2, §3

A375 cell line = assay: CellTiter-Glo growth inhibition assay, A375; format: cell-based; conditions: Homo sapiens, A-375; A375, malignant melanoma, 72 h
Method: (§5) All cell lines were maintained in medium containing 1% penicillin-streptomycin (Dutscher, P06-07100) and 10% Fetal Bovine Serum (Gibco, W3387L) except 20% for KG-1 cell line and PBMC, and cultured at 37° C. with 5% CO2.
(§6) HepG2, Huh7, HCT-116, MDA-MB-231 and A375 cell lines were cultured in Dulbecco's modified Eagle's medium (Dutscher, L0103).
as §4, with “Briefly, for adherent cells,” for “Briefly,”, “assay. For cells growing in suspension, cells were plated onto 96-well plates immediately before the assay.” for “assay.”
(§7) Compounds were added at different concentrations to each well, and cell cultures were incubated for 72 h. Vehicle (H2O) was used as a control, and all compounds were tested in a constant percentage of H2O. After addition of 100 μL of CellTiter-Glo®, luminescence was measured using an Infinite F200Pro (Tecan). EC50 values were determined as the dose of compound required to reduce luminescent values to 50% of the signal obtained for untreated cell cultures. The experimental data were analyzed using a computer program, Graphpad Prism v5 (GraphPad Software, Inc. La Jolla, Calif.). […]

HCT-116 cell line = assay: CellTiter-Glo growth inhibition assay, HCT-116; format: cell-based; conditions: Homo sapiens; HCT-116, colorectal carcinoma, 72 h
Method: as §5, §6
as §4, with “Briefly, for adherent cells,” for “Briefly,”, “assay. For cells growing in suspension, cells were plated onto 96-well plates immediately before the assay.” for “assay.”
as §7

[4] = test system: LI0574 HCC patient derived cells; assay: CellTiter-Glo growth inhibition, HCC patient-derived cells LI0574; format: cell-based, human; conditions: Homo sapiens; LI0574, 72 hours
Method: as §1, §2, §3

EC50 [1]: 1400 nM
EC50 [3]: 6900 nM
EC50 (A375 cell line): 1000 nM
EC50 (HCT-116 cell line): 1600 nM
EC50 [4]: 2400 nM
Structure (SMILES): CC(C)(C)NC1CCN(c2cc(NCc3ccc(Cl)cc3)nc3ccccc23)CC1 [Compound 2-3, 2-(4-chlorobenzylamino)-4-(4-tert-butylaminopiperidin-1-yl)-quinoline hydrochloride salt]
EC50 [2]: 1120 nM
EC50 (CAKI-1 cell line): 1400 nM
